Measured values as given in publication PMC11500415, “Chemical inhibition of stomatal differentiation by perturbation of the master-regulatory bHLH heterodimer via an ACT-Like domain” (Nature Communications, 2024).
Where “and” joins values, the source holds several entries; their conditions need not be identical. Equal values may be shown once. Read-outs that look alike come from different tables or passages of the source.

Legend:
[1] = target: T1, MUTE_ACTLE162A_E163A (Arabidopsis thaliana, UniProt Q9M8K6, E162A/E163A); test: BLI direct binding; design: species or system A. thaliana; settings: for koff: read-out: kdis(1/s), MUTE_E162A_E163A on Anti-GST sensor
T1 construct: MUTE-ACTL (114-202); made in house; host or cells: E. coli BL21
T1 sequence (Q9M8K6 114-202 E162A/E163A): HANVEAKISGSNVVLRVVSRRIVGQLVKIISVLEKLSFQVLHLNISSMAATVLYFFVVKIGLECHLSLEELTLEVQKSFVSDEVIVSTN
From the text: (§1) A. thaliana SCRM (1-494), ΔNSPCH (98-364), MUTE (1-202), ΔNFAMA (190-414), MUTEΔC (1-114), MUTER133A_R134A, MUTEE162A_E163A, MUTER133A_R134A_E162A_E163A, SCRM-ACTL (405-494), MUTE-ACTL (114-202), SPCH-ACTL (285-364), FAMA-ACTL (306-414), MUTE_ACTLR133A_R134A, MUTE_ACTLE162A_E163A, MUTE_ACTLR133A_R134A_E162A_E163A were cloned into pGEX-4T-1 vector with an N-terminal GST tag and a thrombin cleavage sequence. For protein expression, the constructs were transformed into E. coli strain BL21. For each transformant, a single colony was selected and incubated in 10 ml LB liquid media. The overnight-incubated E. coli suspensions were transferred to 1 L LB medium and incubated at 37 °C for around 2 h until the OD600 reached 0.4–0.6. The isopropyl β-D-1-thiogalactopyranoside ([…] of final concentration) was added to the cultures and the strains were incubated at 22 °C for a further 18 h. GST-fused proteins were purified using glutathione agarose resin. The soluble portion of the cell lysate was loaded onto a GST-Sepharose column. Nonspecifically bound proteins were removed by washing the column with 20 mM Tris pH 8.0, 200 mM NaCl. The bound GST-fused protein was eluted with 10 mm glutathione and 20 mM Tris pH 8.0, 200 mM NaCl. The GST-fused proteins were exchanged with phosphate-buffered saline buffer, and then the solution was treated with 50 μg of thrombin for 10–12 h at 16 ^οC. The GST portion of the protein was cleaved during thrombin digestion, and then the whole solution was reloaded onto the glutathione S-transferase column to obtain pure protein. The purified proteins were further purified by gel filtration on a Superdex-200 (GE) column using fast protein liquid chromatography and phosphate buffer (pH 7.2) as the eluent. The purity of the protein was checked by SDS-PAGE. For detailed lists of oligo DNA and plasmid information, see Supplementary Tables 5, 6, respectively.
(§2) The binding affinities of SCRM to MUTE / MUTER133A_R134A / MUTEE162A_E163A / MUTER133A_R134A_E162A_E163A in presence and absence of Stomidazolone (3) and its analogues (AYSJ1059 (5) and AYSJ1061 (6)), and Stomidazolone / AYSJ1059 / AYSJ1061 interactions with GST-tagged SCRM, MUTE, SPCH, FAMA, MUTE ΔACTL, MUTE_ACTL, SCRM_ACTL, SPCH_ACTL and FAMA_ACTL, MUTER133A_134A, MUTEE162A_E163A, MUTER133A_R134A_E162A_E163A were measured using the Octet Red96 system (ForteBio, Pall Life Sciences) following the manufacturer’s protocols. The optical probes coated with anti-GST were first loaded with 500 nM GST tagged proteins before kinetic binding analyses. The experiment was performed in 96-well plates maintained at 30 °C. Each well was loaded with 200 μL reaction volume for the experiment. The binding buffer used in these experiments contained 1× PBS supplemented with 2% DMSO, 0.02% Tween20. The concentrations of the Stomidazolone as the analyte in the binding buffer were 100, 50, 25, 12.5, 6.25, 3.12, and 1.56 μM. There was no binding of the analytes to the unloaded probes as shown by the control wells. Binding kinetics to all seven concentrations of the analytes were measured simultaneously using default parameters on the instrument. The data were analyzed using the Octet data analysis software. The association and dissociation curves were fit with the 1:1 homogeneous ligand model. The kobs (observed rate constant) values were used to calculate Kd, with steady-state analysis of the direct binding. See Supplementary Table 3 for details.

[2] = target: T2, SCRM_ACTL (Arabidopsis thaliana, UniProt Q9LSE2); test: BLI direct binding; design: species or system A. thaliana
T2 construct: SCRM-ACTL (405-494); GST (N, cleaved yes); made in house; host or cells: E. coli BL21
T2 sequence (Q9LSE2 405-494): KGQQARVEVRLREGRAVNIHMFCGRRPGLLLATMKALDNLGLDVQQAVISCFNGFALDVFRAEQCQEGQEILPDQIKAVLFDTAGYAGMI
From the text: as §1, §2

[3] = MUTE_E162A_E163A on Anti-GST sensor, Stomid 3.12 µM, rep-1, rep-2
[4] = MUTE_E162A_E163A on Anti-GST sensor, Stomid 6.25 µM, rep-1, rep-2
[5] = MUTE_E162A_E163A on Anti-GST sensor, Stomid 12.5 µM, rep-1, rep-2
[6] = MUTE_E162A_E163A on Anti-GST sensor, Stomid 25 µM, rep-1, rep-2
[7] = MUTE_E162A_E163A on Anti-GST sensor, Stomid 50 µM, rep-1, rep-2
[8] = MUTE_E162A_E163A on Anti-GST sensor, Stomid 100 µM, rep-1, rep-2
[9] = MUTE_E162A_E163A on Anti-GST sensor, Stomid 200 µM, rep-1, rep-2

## O=C1C(c2ccccc2)=NC(NS(=O)(=O)c2ccccc2)(c2ccccc2)N1S(=O)(=O)c1ccccc1 (centres unmarked) [Stomidazolone]
[1]; BLI steady state, MUTE_ACTL E162A_E163A, read-out: KD (SS)
  Kd: 125 ± 12 µM
[1]; BLI, MUTE_ACTL E162A_E163A, read-out: KD
  Kd: 88.3 ± 5.5 µM
[1]; [3]
  RMax: 0.032 and 0.02
  Response: 0.0312 and 0.0195
[1]; MUTE_E162A_E163A on Anti-GST sensor, Stomid 3.12 µM, rep-1, rep-2, read-out: KD
  Kd: 86.2 µM
[1]; [4]
  RMax: 0.055 and 0.045
  Req/Rmax(%): 86.2% and 99.9%
  Response: 0.053 and 0.041
  kdis: 0.25 s⁻¹
  kon: 2770 M⁻¹ s⁻¹
[1]; MUTE_E162A_E163A on Anti-GST sensor, Stomid 6.25 µM, rep-1, rep-2, read-out: KD
  Kd: 84.8 µM and 90.2 µM
[1]; [5]
  RMax: 0.07 and 0.08
  Req/Rmax(%): 86.2% and 95.1%
  Response: 0.065 and 0.078
  kobs: 0.00218 s⁻¹ and 0.00344 s⁻¹
  kon: 2790 M⁻¹ s⁻¹
[1]; MUTE_E162A_E163A on Anti-GST sensor, Stomid 12.5 µM, rep-1, rep-2, read-out: KD
  Kd: 85.4 µM and 87.9 µM
[1]; [6]
  Req/Rmax(%): 83.8% and 88.2%
  kdis: 0.251 s⁻¹
  kobs: 0.0028 s⁻¹ and 0.00329 s⁻¹
  kon: 2870 M⁻¹ s⁻¹
[1]; MUTE_E162A_E163A on Anti-GST sensor, Stomid 25 µM, rep-1, rep-2, read-out: KD
  Kd: 87.7 µM and 87.3 µM
[1]; [7]
  RMax: 0.145 and 0.18
  Req/Rmax(%): 89.7% and 82.4%
  Response: 0.141 and 0.171
  kobs: 0.00431 s⁻¹ and 0.00272 s⁻¹
  kon: 2770 M⁻¹ s⁻¹
[1]; MUTE_E162A_E163A on Anti-GST sensor, Stomid 50 µM, rep-1, rep-2, read-out: KD
  Kd: 87.7 µM and 89 µM
[1]; [8]
  RMax: 0.256 and 0.23
  Req/Rmax(%): 98.6% and 97.1%
  Response: 0.254 and 0.2296
  kdis: 0.248 s⁻¹
  kobs: 0.0129 s⁻¹ and 0.00842 s⁻¹
  kon: 2860 M⁻¹ s⁻¹
[1]; MUTE_E162A_E163A on Anti-GST sensor, Stomid 100 µM, rep-1, rep-2, read-out: KD
  Kd: 88.7 µM and 86.6 µM
[1]; [9]
  RMax: 0.275 and 0.3
  Req/Rmax(%): 100%
  Response: 0.272 and 0.292
  kobs: 0.0343 s⁻¹
[1]; MUTE_E162A_E163A on Anti-GST sensor, Stomid 200 µM, rep-1, rep-2, read-out: KD
  Kd: 89.2 µM
[1]; Stomid 3.12 µM, rep-1, rep-2
  koff: 0.243 s⁻¹
[1]; Stomid 6.25 µM, rep-1, rep-2
  koff: 0.242 s⁻¹
[1]; Stomid 12.5 µM, rep-1, rep-2
  koff: 0.245 s⁻¹
[1]; Stomid 25 µM, rep-1, rep-2
  koff: 0.246 s⁻¹
[1]; Stomid 50 µM, rep-1, rep-2
  koff: 0.246 s⁻¹
[1]; Stomid 100 µM, rep-1, rep-2
  koff: 0.247 s⁻¹
[1]; Stomid 200 µM, rep-1, rep-2
  koff: 0.25 s⁻¹
[1]; read-out: kon(1/Ms), MUTE_E162A_E163A on Anti-GST sensor, Stomid 3.12 µM, rep-1, rep-2
  kon: 2830 M⁻¹ s⁻¹
[1]; read-out: kon(1/Ms), MUTE_E162A_E163A on Anti-GST sensor, Stomid 6.25 µM, rep-1, rep-2
  kon: 2850 M⁻¹ s⁻¹
[1]; read-out: kon(1/Ms), MUTE_E162A_E163A on Anti-GST sensor, Stomid 12.5 µM, rep-1, rep-2
  kon: 2870 M⁻¹ s⁻¹
[1]; read-out: kon(1/Ms), MUTE_E162A_E163A on Anti-GST sensor, Stomid 25 µM, rep-1, rep-2
  kon: 2800 M⁻¹ s⁻¹
[1]; read-out: kon(1/Ms), MUTE_E162A_E163A on Anti-GST sensor, Stomid 50 µM, rep-1, rep-2
  kon: 2810 M⁻¹ s⁻¹
[1]; read-out: kon(1/Ms), MUTE_E162A_E163A on Anti-GST sensor, Stomid 100 µM, rep-1, rep-2
  kon: 2780 M⁻¹ s⁻¹
[1]; read-out: kon(1/Ms), MUTE_E162A_E163A on Anti-GST sensor, Stomid 200 µM, rep-1, rep-2
  kon: 2800 M⁻¹ s⁻¹
[2]; BLI steady state, read-out: KD (SS)
  Kd: 76 ± 6.8 µM
[2]; BLI, read-out: KD
  Kd: 78.2 ± 1.2 µM
